According to US20060004197A1, “Sulfonamide-based compounds as protein tyrosine kinase inhibitors” (priority 2004, published 2006):
Like-named read-outs stand apart in the source and are kept apart here. Blank lines part the entries; values can stand above or below the compound they belong to.

Biological target: T1, Recombinant human Src (Homo sapiens, UniProt P12931)
T1 construct: made in house; host or cells: baculovirus-insect cell system
Assay: Src tyrosine kinase activity, poly E4Y / 32P-ATP phosphorylation assay
Type: biochemical
Conditions: for IC50: NI = no inhibition at 100 μg/mL; for inhibition at 15 µg/mL: compound at 15 μg/mL
Experimental: Recombinant human Src was expressed using the baculovirus-insect cell system and purified as published (Budde et al., 1993 and 2000).
The tyrosine kinase activity of Src, Csk and FGFr was determined using poly E4Y and ^32P-ATP. Briefly, enzymes were assayed in a reaction mixture consisting of 0.15 M EPPS-NaOH (pH 8.0) with 6 mM MgCl2, 0.2 mM γ^32P-ATP (0.2-0.4 mCi/μmol), 10% glycerol, 0.1% Triton X-100, and poly E4Y. Poly E4Y is a synthetic peptide whose phosphorylation is measured in this assay by the addition of the radioactively labeled phosphate from the ATP (Budde et al., 1995). […] When ATP was varied (0, 50, 100 and 250 μM), poly E4Y was kept constant at 150 μg/ml.

[1] = Table 3, read-out: % Inhibition at 15 μg/mL Src (%)
[2] = read-out: % Inhibition at 15 μg/mL Src %

T1 sequence (P12931 whole entry): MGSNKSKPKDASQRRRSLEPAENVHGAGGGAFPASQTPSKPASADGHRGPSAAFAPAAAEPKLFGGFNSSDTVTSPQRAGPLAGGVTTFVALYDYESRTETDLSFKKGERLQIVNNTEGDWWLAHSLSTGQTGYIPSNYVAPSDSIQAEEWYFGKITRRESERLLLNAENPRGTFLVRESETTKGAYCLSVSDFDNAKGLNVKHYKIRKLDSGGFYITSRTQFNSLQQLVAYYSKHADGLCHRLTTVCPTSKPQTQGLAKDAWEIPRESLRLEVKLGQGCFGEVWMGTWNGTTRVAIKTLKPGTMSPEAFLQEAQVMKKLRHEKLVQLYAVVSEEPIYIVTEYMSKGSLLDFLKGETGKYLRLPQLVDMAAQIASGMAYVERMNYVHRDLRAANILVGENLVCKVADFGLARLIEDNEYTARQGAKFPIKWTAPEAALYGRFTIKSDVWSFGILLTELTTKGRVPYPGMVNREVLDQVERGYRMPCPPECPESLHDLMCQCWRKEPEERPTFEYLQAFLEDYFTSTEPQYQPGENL

- IC50 (Table 3, Formula II compounds): 20 µM
Compound: COc1ccc(Oc2ccc(NS(=O)(=O)c3ccc(Cl)c4nonc34)c(NS(=O)(=O)c3ccc(C)cc3)c2)cc1 [Compound 22u, 7-chloro-N-[4-(4-methoxy-phenoxy)-2-(4-toluenesulfonylamino)-phenyl]-benzo[1,2,5]oxadiazole-4-sulfonamide]

- IC50 (Table 3, Formula II compounds): 174 µM
Compound: COc1ccc(Oc2ccc(NS(=O)(=O)c3ccc(S(C)(=O)=O)cc3)c(NS(=O)(=O)c3ccc(C)cc3)c2)cc1 [Compound 22z, 4-methanesulfonyl-N-[4-(4-methoxy-phenoxy)-2-(4-toluenesulfonylamino)-phenyl]-benzenesulfonamide]

- IC50 (Table 4, Formula III compounds): 118 µM
Compound: COc1ccc(Oc2cc(NS(=O)(=O)c3ccc(C)cc3)c(NS(=O)(=O)c3ccc(C)cc3)cc2C)cc1 [Compound 37, N-[4-(4-methoxy-phenoxy)-5-methyl-2-(4-toluenesulfonylamino)-phenyl]-4-toluenesulfonamide]

- inhibition at 15 µg/mL (Table 4, read-out: % Inhibition at 15 μg/mL Src (%)): 50%
Compound: COc1ccc(Oc2cc(NS(=O)(=O)c3ccc(C)cc3)c(NS(=O)(=O)c3ccc(C)cc3)cc2C(F)(F)F)cc1 [Compound 38b, N-[4-(4-methoxy-phenoxy)-2-(4-toluenesulfonylamino)-5-trifluoromethyl-phenyl]-4-toluenesulfonamide]

- inhibition at 15 µg/mL [2]: 0%
Compound: Cc1ccc(C(=O)Nc2cc(NCC3CCCCC3)c([N+](=O)[O-])cc2NC(=O)c2ccc(C)cc2)cc1 [Compound 71aa, N-[4-(cyclohexylmethyl-amino)-5-nitro-2-(4-toluoylamino)-phenyl]-4-toluamide]

- inhibition at 15 µg/mL [2]: 0%
Compound: COc1ccc(Oc2ccc(NC(=O)c3ccc(C#N)nc3)c(NS(=O)(=O)c3ccc(C)cc3)c2)cc1 [Compound 71b, 6-cyano-N-[4-(4-methoxy-phenoxy)-2-(4-toluenesulfonylamino)-phenyl]-nicotinamide]

Second part, the compound before the results:

Compound: COc1ccc(Oc2ccc(NS(=O)(=O)c3ccc(-c4ccon4)s3)c(NS(=O)(=O)c3ccc(C)cc3)c2)cc1 [Compound 22v, 5-isoxazol-3-yl-N-[4-(4-methoxy-phenoxy)-2-(4-toluenesulfonylamino)-phenyl]-thiophene-2-sulfonamide]
- inhibition at 15 µg/mL [1]: 22%

Compound: COC(=O)c1c(S(=O)(=O)Nc2ccc(Oc3ccc(OC)cc3)cc2NS(=O)(=O)c2ccc(C)cc2)c(C)n(C)c1C [Compound 22w, methyl 4-[4-(4-methoxy-phenoxy)-2-(4-toluenesulfonylamino)-phenylsulfamoyl]-1,2,5-trimethyl-1H-pyrrole-3-carboxylate]
- inhibition at 15 µg/mL [1]: 6%

Compound: CCCCc1ccc(S(=O)(=O)Nc2ccc(Oc3ccc(OC)cc3)cc2NS(=O)(=O)c2ccc(C)cc2)cc1 [Compound 22x, 4-butyl-N-[4-(4-methoxy-phenoxy)-2-(4-toluenesulfonylamino)-phenyl]-benzenesulfonamide]
- IC50 (Table 3, Formula II compounds): 36 µM

Compound: COc1ccc(Oc2ccc(NS(=O)(=O)CCc3cccc4ccccc34)c(NS(=O)(=O)c3ccc(C)cc3)c2)cc1 [Compound 22y, N-[5-(4-methoxy-phenoxy)-2-(2-naphthalen-1-yl-ethanesulfonylamino)-phenyl]-4-toluenesulfonamide]
- IC50 (Table 3, Formula II compounds): 20 µM

Compound: COc1ccc(Oc2cc(NS(=O)(=O)c3ccc(C)cc3)c(NS(=O)(=O)c3ccc(C)cc3)cc2C(=O)O)cc1 [Compound 34, 2-(4-methoxy-phenoxy)-4,5-bis-(4-toluenesulfonylamino)-benzoic acid]
- IC50 (Table 4, Formula III compounds): 77 µM

Compound: Cc1ccc(S(=O)(=O)Nc2cc(F)c(SCc3ccccc3Cl)cc2NS(=O)(=O)c2ccc(C)cc2)cc1 [Compound 38c, N-[4-(2-chloro-benzylsulfanyl)-5-fluoro-2-(4-toluenesulfonylamino)-phenyl]-4-toluenesulfonamide]
- IC50 (Table 4, Formula III compounds): 2.2 µM

Compound: Cc1ccc(S(=O)(=O)Nc2cc(F)c(S(=O)(=O)Cc3ccccc3Cl)cc2NS(=O)(=O)c2ccc(C)cc2)cc1 [Compound 38d, N-[4-(2-chloro-phenylmethanesulfonyl)-5-fluoro-2-(4-toluenesulfonylamino)-phenyl]-4-toluenesulfonamide]
- IC50 (Table 4, Formula III compounds): 13 µM

Compound: COc1ccc(Oc2ccc(N)c(NS(=O)(=O)c3ccc(C)cc3)c2)cc1 [Compound 71a, N-[2-amino-5-(4-methoxy-phenoxy)-phenyl]-4-toluenesulfonamide]
- inhibition at 15 µg/mL [2]: 13%
